Data set [1] concerns Pseudomonas aeruginosa (ATCC 27853). Description: Minimal bactericidal concentration (MBC) assay. To be noted: short derivatives; 20 mM PPB at pH 7.4. Format: cell-based. The source says:
(§1) The Gram-positive strains Enterococcus faecalis (ATCC 29212), Staphylococcus aureus (HNCMO112011), and Listeria monocytogenes (ATCC 19111), and the Gram-negative strains Pseudomonas aeruginosa (ATCC 27853), Escherichia coli (ATCC 8739), Salmonella enterica (ATCC 13076), Klebsiella pneumoniae (NCTC 13440), and Acinetobacter baumannii (ATCC 17978) were obtained from ATCC (United States) and NCTC (National Collection of Type Cultures – England).
(§2) Minimal bactericidal concentrations (MBC) of peptides and reference antibiotics were determined in 20 mM potassium phosphate buffer (PPB, pH 7.4) and Mueller–Hinton broth (MHB) as described by ([Jenei et al., 2020]). Briefly, bacterial cultures were grown to mid-log phase, washed, adjusted to OD₆₀₀ = 0.1 (∼10⁷ CFU/mL), added 10 μl of it into 100 μl mixture and incubated in 96-well plates with 2-fold serial dilutions of peptides or antibiotics. After incubation at 37 °C with shaking, bacterial viability was assessed by plating 5 μL aliquots on LB agar. MBC was defined as the lowest concentration yielding no colony growth. Experiments were done at least in three biological replicates.
(§3) NCR169, its oxidized form (NCR169ox), and its variant in which the four cysteines were replaced with serines (NCR169-C9,15,28,33/S) (Table 1.A) were chemically synthesized with C-terminal amidation. These peptides were tested for antimicrobial activity against a panel of ESKAPE pathogens - Enterococcus faecalis, Staphylococcus aureus, Klebsiella pneumoniae, Acinetobacter baumannii, Pseudomonas aeruginosa, E. coli - as well as Listeria monocytogenes and Salmonella enterica. Peptides were applied to 10^6 log-phase bacterial cultures in a two-fold dilution series (25 - 0.1 µM) in potassium phosphate buffer (PPB) at pH 7.4. After three hours of incubation, 5 µl of each treatment was plated on LB agar and incubated overnight at 37 °C to assess bacterial survival. Minimal bactericidal concentrations (MBCs), defined as the lowest concentration eliminating bacterial growth, are presented in Table 1B.

Data set [2] deals with Enterococcus faecalis (ATCC 29212). Description: Minimal bactericidal concentration (MBC) assay. The class given is cell-based.
Text: as §1, §2, §3

Data set [3] concerns Salmonella enterica (ATCC 13076). Description: Minimal bactericidal concentration (MBC) assay. The class given is cell-based. To be noted: short derivatives; 20 mM PPB at pH 7.4.
Text: as §1, §2, §3

The test system of data set [4] is Klebsiella pneumoniae (NCTC 13440). Description: Minimal bactericidal concentration (MBC) assay. Format: cell-based. To be noted: short derivatives; 20 mM PPB at pH 7.4.
Text: as §1, §2, §3

Data set [5] has as its system Listeria monocytogenes (ATCC 19111). Description: Minimal bactericidal concentration (MBC) assay. The class given is cell-based. As to conditions: short derivatives; 20 mM PPB at pH 7.4.
Text: as §1, §2, §3

Data set [6] deals with Staphylococcus aureus (HNCMO112011). Format: cell-based. To be noted: for MBC S. a.: short derivatives, 20 mM PPB at pH 7.4.
Text: as §1, §2, §3

Data set [7] deals with Acinetobacter baumannii (ATCC 17978). Format: cell-based. To be noted: short derivatives; 20 mM PPB at pH 7.4.
Text: as §1, §2, §3

The test system of data set [8] is Escherichia coli (ATCC 8739). The class given is cell-based. As to conditions: ATCC 8739, 3 h.
Text: as §1
as §2, with “Experiments were done at least in three biological replicates.” left out
Three biological replicates were treated at OD600 = 0.2 with a final concentration of 1.6 µM NCR169C17–38 peptide for 20 min, while the control samples were treated with the same amount of water for 20 min. […] Quality and quantity was detected using 2200 TapeStation (Agilent) and Qubit RNA BR Assay […]

Data set [9] is classed as physicochemical. To be noted: pH 7.4.
The nature of data set [10]: Peptide-lipid overlay assay. The class given is binding. As to conditions: 2 μM peptide, 1 h. As for the experimental part: Membrane lipid strips (Echelon Biosciences, P-6002) were incubated for 1 h in blocking solution (3 % BSA in TBS-Tween 0.1 %) with gentle agitation followed by four 8-min washes in TBS-Tween. Then, strips were incubated with 2 μM of NCR169C17–38 in blocking solution for 1 h. Not bound peptide was washed off by four 8-min washes in TBS-Tween. The bound StrepII-tagged peptide was then detected on the strips using the same procedure described for the dot blot, except that chemiluminescence was visualized with an iBright™ FL1500 Imaging System (Invitrogen).
As shown above, NCR169C17–38 causes rapid damage to bacterial membranes. Since membrane structure is largely determined by its lipid composition, we next investigated the ability of NCR169C17–38-StrepII to bind membrane lipids in vitro using a peptide-lipid overlay assay (Supplementary Fig. 3.A). NCR169C17–38-StrepII bound to several anionic lipids, including phosphoinositides, phosphatidic acid, phosphatidylserine, and cardiolipin - a major constituent of bacterial membranes.

In a further data set the test system is E. coli. Description: Antimicrobial test after heat stress or storage of the peptide. The class given is cell-based, Escherichia coli. To be noted: then tested against E. coli, 3.1 µM = lowest dilution tested. As for the experimental part:
(B) NCR169C17-38-StrepII remains active against E. coli even at 3.1 µM after 20 minutes of treatment at 80 °C or incubation at room temperature for 24 hrs. Bacterial viability was assessed by plating 5 µL aliquots after treatment on LB agar. Only non-treated control cells could grow.

For data set [11] the following is noted: 25, 12.5, 6.3, 3.1 µM in PPB, overnight at room temperature or 80 °C for 20 min; StrepII detection.
Protocol: For heat stability test serial dilutions of the NCR169C17–38-StrepII peptide were prepared in PPB at concentrations of 25, 12.5, 6.3, 3.1 µM, following the same protocol used in the antimicrobial assay. One set of samples was incubated overnight at 37 °C with shaking, another set was subjected to heat stress at 80 °C for 20 min, while one set was freshly prepared. Dot-blot analysis was performed by spotting 5 µl of each peptide solution onto a 0.22 µm nitrocellulose membrane (Bio-Rad). Detection of the StrepII-tagged peptide was carried out using the Precision Protein StrepTactin-HRP conjugate (Bio-Rad), following the manufacturer’s recommended protocol. Signal development was achieved using the Clarity Western ECL Substrate (Bio-Rad), with the membrane incubated for 5 min at room temperature, followed by exposure to Fuji Medical X-ray film for visualization.
Peptide dilutions (25, 12.5, 6.3, and 3.1 µM) in PPB were either incubated overnight at room temperature (RT) or heated at 80 °C for 20 min.
Where [12] appears, read: short derivatives, 20 mM PPB at pH 7.4.

These results are taken from PMC12811501, “A plant-derived antimicrobial peptide with multiple mechanisms of action exhibiting antibacterial and antibiofilm activities comparable to or superior to polymyxin B” (Current Research in Microbial Sciences, 2025).

Residues, ends and D or L forms follow the SMILES beside them. No end group written: not given here.

Consider “KCVENVCVLWYK [NCR169_27–38, shorter C-terminal fragment of NCR169C17–38]”, for which, in data set [1], the “MBC P. a.” value is recorded as “- (lack of bactericidal activity up to 25 µM)”. Besides, the “MBC E. f.” value in [2] (setting [12]) is “- (lack of bactericidal activity up to 25 µM)”. The “MBC S. e.” value in data set [3] is on record as “- (lack of bactericidal activity up to 25 µM)”. For the same compound, the “MBC K. p.” value in data set [4] is “- (lack of bactericidal activity up to 25 µM)”. The “MBC L. m.” value in data set [5] is recorded as “- (lack of bactericidal activity up to 25 µM)”. In data set [6], the “MBC S. a.” value was “- (lack of bactericidal activity up to 25 µM)”. In data set [7], the “MBC A. b.” value was “- (lack of bactericidal activity up to 25 µM)”.
Regarding YKSKKPLFKIWK-NH2 [NCR169_16–27], the “MBC Sa” value in data set [6] (HNCMO112011, 3 h) was 25 µM. In data set [8], the “MBC Ec” value came to 6.3 µM.
Take “EDIGHIKYCGIVDDCYKSKKPLFKIWKCVENVCVLWYK (disulfide) (disulfide (positions not given here); also: disulfide pairing not given here) [NCR169ox, oxidized form of NCR169]”: the “MBC E. f.” value in data set [2] (PPB pH 5.8, 3 h treatment, plated on LB agar) is “- (lack of bactericidal activity up to 25 µM)”; in [2] (PPB pH 7.4, 3 h treatment, 10^6 log-phase bacteria, two-fold dilutions 25-0.1 µM, plated on LB agar, * = best MBC value measured, more than two fold dilution differences in replicates) it was “- (lack of bactericidal activity up to 25 µM)”. Moreover, the “solubility / visible turbidity upon peptide addition” value in data set [9] is reported as “no visible turbidity”.
Regarding `CC[C@H](C)[C@H](NC(=O)[C@H](CCCCN)NC(=O)[C@H](Cc1ccccc1)NC(=O)[C@H](CC(C)C)NC(=O)[C@@H]1CCCN1C(=O)[C@H](CCCCN)NC(=O)[C@H](CCCCN)NC(=O)[C@H](CO)NC(=O)[C@@H](N)CCCCN)C(=O)N[C@@H](Cc1c[nH]c2ccccc12)C(=O)N[C@@H](CCCCN)C(=O)N[C@@H](CS)C(=O)N[C@H](C(=O)N[C@@H](CCC(=O)O)C(=O)N[C@@H](CC(N)=O)C(=O)N[C@H](C(=O)N[C@@H](CS)C(=O)N[C@H](C(=O)N[C@@H](CC(C)C)C(=O)N[C@@H](Cc1c[nH]c2ccccc12)C(=O)N[C@@H](Cc1ccc(O)cc1)C(=O)N[C@@H](CCCCN)C(=O)N[C@@H](Cc1c[nH]c2ccccc12)C(=O)N[C@@H](CO)C(=O)N[C@@H](Cc1c[nH]cn1)C(=O)N1CCC[C@H]1C(=O)N[C@@H](CCC(N)=O)C(=O)N[C@@H](Cc1ccccc1)C(=O)N[C@@H](CCC(=O)O)C(=O)N[C@@H](CCCCN)C(N)=O)C(C)C)C(C)C)C(C)C` [NCR169C17–38-StrepII] (H-KSKKPLFKIWKCVENVCVLWYKWSHPQFEK-NH2; N-terminus assumed), in data set [10], the “binding to phosphatidylglycerol (PG) on lipid strip” value was “did not bind”. For the same compound, the “binding to anionic lipids on lipid strip” value in data set [10] (phosphoinositides, phosphatidic acid, phosphatidylserine, cardiolipin) is “bound”. In addition, the “lowest concentration still bactericidal after heat stress” value with E. coli (peptide in PPB heated 20 minutes at 80 °C) was at most 3.1 µM. The “lowest concentration still bactericidal after storage” value in the data set on E. coli (peptide in PPB incubated at room temperature for 24 hrs (overnight)) is at most 3.1 µM. Further, the “peptide stability by dot blot” value in data set [11] is listed as “confirmed its stability”.
Regarding “PLFKIWKCVENVCVLWYK [NCR169_21–38, shorter C-terminal fragment of NCR169C17–38]”, the “MBC P. a.” value in data set [1] is reported as “- (lack of bactericidal activity up to 25 µM)”. Also, the “MBC E. f.” value in data set [2] (setting [12]) is given as “- (lack of bactericidal activity up to 25 µM)”. In addition, the “MBC S. e.” value in [3] was “- (lack of bactericidal activity up to 25 µM)”. Besides, the “MBC K. p.” value in [4] is on record as “- (lack of bactericidal activity up to 25 µM)”. Further, the “MBC L. m.” value in [5] is listed as “- (lack of bactericidal activity up to 25 µM)”. For the same compound, in data set [6], the “MBC S. a.” value is “- (lack of bactericidal activity up to 25 µM)”.
